Test results taken from patent publication US5284853A, “Angiotensin II receptor blocking 2,3,6 substituted quinazolinones” (American Cyanamid Company, priority 1993, dated 1994).
Where “and” joins values, the source holds several entries; their conditions need not be identical. Identical values can stand only once. Values belong to the molecule of their own block, whether it stands above or below them.

Experiments:
Angiotensin II Receptor = biological target: T1, Angiotensin II Receptor (Bos taurus, UniProt P25104); test: Receptor binding assay: competition of [^125 I](Sar^1,Ile^8)AngII binding to beef adrenal cortex microsomal membranes; conditions: 60 min, room temperature, pH 7.4
T1 construct: The brownish tissue forming the adrenal cortex is scraped off and finely minced with scissors before homogenization; tissue local slaughter house (Maxwell-Cohen); host or cells: beef adrenal cortex, microsomal membranes (100,000×g pellet)
T1 sequence (P25104 1-359): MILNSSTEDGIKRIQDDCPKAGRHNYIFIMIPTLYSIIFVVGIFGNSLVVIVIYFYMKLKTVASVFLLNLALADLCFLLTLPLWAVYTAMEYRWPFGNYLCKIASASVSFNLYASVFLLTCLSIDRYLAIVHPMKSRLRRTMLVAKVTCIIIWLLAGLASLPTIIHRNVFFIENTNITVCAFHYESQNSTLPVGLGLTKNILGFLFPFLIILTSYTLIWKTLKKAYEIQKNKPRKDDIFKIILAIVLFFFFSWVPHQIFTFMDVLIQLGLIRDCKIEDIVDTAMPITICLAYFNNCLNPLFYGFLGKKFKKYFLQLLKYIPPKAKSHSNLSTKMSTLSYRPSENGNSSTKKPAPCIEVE
From the text: Beef adrenals are obtained from a local slaughter house (Maxwell-Cohen). [^125 […]. 2200 Ci/mmole, is purchased from Dupont (KEN@, Boston, Mass.). All unlabeled AngII analogs, Dimethylsulfoxide (DMSO), nucleotides, bovine serum albumin (BBA) are purchased from Sigma Chemical Co., St. Louis, MO U.S.A. Approximately sixteen (16) to twenty (20) beef adrenal glands are processed as follows: fresh adrenal glands received on crushed ice are cleaned of fatty tissues and the tough membranes encapsulating the glands are removed and discarded. The brownish tissue forming the adrenal cortex is scraped off and finely minced with scissors before homogenization care is taken to avoid contamination with medullary tissue during dissection. […] Unless otherwise indicated, all subsequent operations are done at […]. […] The homogenate is centrifuged first at low speed (3,000×g) for 10 min. […] This P2 pellet is discarded and the liquid phase is carefully decanted off in clean centrifuge tubes and recentrifuged at high speed (100,000×g) for 60 min. The translucent final pellet is harvested and combined in a small volume (20-50.0 ml) of […] Tris.HCl buffer, pH 7.2. A 100 ul aliquot is withdrawn and the protein content of the preparation is determined by the Lowry's method (Lowry, O. H., Rosebrough, N. P., Parr, A. L. and Randall, R. J., Protein measurement with Folin phenol reagent. J. Biol. Chem., […], 265-275, 1951). The pelleted membrane is reconstituted in 50.0 mM Tris.HCl buffer containing 0.1 mM of phenylmethylsulfonyl fluoride (PMSF) to give approximately a protein concentration of 2.5 mg per ml of tissue suspension. […] In competition studies, experimental compounds are diluted in dimethylsulfoxide (DMSO) and added in 20 ul to wells before the introduction of tissue membranes. This concentration of DMSO is found to have no negative effects on the binding of [^125 I] ([…] to the membranes. Assays are performed in triplicate. The wells are left undisturbed for 60 min. at room temperature. Following incubation, all wells are harvested at once with a Brandel® Harvester especially designed for a 96 well plate (Brandel® Biomedical Research & Development Labs. Inc., Gaithersburg, MD, U.S.A.). The filter discs are washed with 10×1.0 ml of cold 0.9% NaCl to remove unbound ligand. Presoaking the filter sheet in 0.1% polyethyleneimine in normal saline (PEI/Saline) greatly reduces the radioactivity retained by the filter blanks. This method is routinely used. The filters are removed from the filter grid and counted in a Parkard® Cobra Gamma Counter for 1 min. (Packard Instrument Co., Downers Grove, Ill, U.S.A.). The binding data are analyzed by the non-linear interactive "LUNDON-11" program (LUNDON SOFTWARE Inc., Cleveland, OH U.S.A.).

[1] = tested on: Angiotensin II (AII) vasopressor response; test: AII Challenge: antagonism of the angiotensin II vasopressor response in conscious SHR; format: in vivo, Spontaneously hypertensive rats (Male okamoto-Aoki SHR); conditions: 5 mg/kg I.V.; for Average Change / Inhibition: n = 2; for Change / Control Before AII / Response After AII: per rat
From the text: […] Conscious Male okamoto-Aoki SHR, 16-20 weeks old, weighing approximately 330 g are purchased from Charles River Labs (Wilmington, MA). Conscious rats are restrained in a supine position with elastic tape. The area at the base of the tail is locally anesthetized by subcutaneous infiltration with 2% procaine. […] The cannula is secured, heparinized (1,000 I.U./ml), sealed and the wound is closed. The animals are placed in plastic restraining cages in an upright position. The cannula is attached to a Statham P23Db pressure transducer, and pulsatile blood pressure is recorded to 10-15 minutes with a Gould Brush recorder. (Chan et al., (Drug Development Res., 18:75-94, 1989). […] Co., St. […] […] […] […] […] A compound is considered active if at 30 mg/kg i.v. it antagonized at least 50% of the response.

[2] = AII 0.05 mcg/kg IV, 30 min post dose
[3] = AII 0.05 mcg/kg IV, 60 min post dose
[4] = AII 0.05 mcg/kg IV, 90 min post dose
[5] = AII 0.05 mcg/kg IV, 180 min post dose
[6] = AII 0.1 mcg/kg IV, 30 min post dose
[7] = AII 0.1 mcg/kg IV, 60 min post dose
[8] = AII 0.1 mcg/kg IV, 90 min post dose
[9] = AII 0.1 mcg/kg IV, 120 min post dose
[10] = AII 0.1 mcg/kg IV, 180 min post dose
[11] = AII 0.5 mcg/kg IV, 120 min post dose

IC50 (Angiotensin II Receptor): 330 nM
SMILES: CCCCc1nc2ccc(C3CC(c4ccc(C)s4)=NO3)cc2c(=O)n1Cc1ccc(-c2ccccc2-c2nnn[nH]2)cc1 (stereo not shown) [Example 21]
Average Change [1, 2]: 13.5 mmhg
Inhibition [1, 2]: 72%
Change [1, 2]: 17 mmhg and 10 mmhg
Control Before AII [1, 2]: 188 mmhg and 180 mmhg
Response After AII [1, 2]: 205 mmhg and 190 mmhg
Average Change [1, 3]: 25 mmhg
Inhibition [1, 3]: 47%
Change [1, 3]: 35 mmhg and 15 mmhg
Control Before AII [1, 3]: 175 mmhg
Response After AII [1, 3]: 210 mmhg and 190 mmhg
Average Change [1, 4]: 24 mmhg
Inhibition [1, 4]: 49%
Change [1, 4]: 25 mmhg and 23 mmhg
Control Before AII [1, 4]: 170 mmhg and 157 mmhg
Response After AII [1, 4]: 195 mmhg and 180 mmhg
Average Change [1, 5]: 30 mmhg
Inhibition [1, 5]: 37%
Change [1, 5]: 40 mmhg and 20 mmhg
Control Before AII [1, 5]: 170 mmhg and 160 mmhg
Response After AII [1, 5]: 210 mmhg and 180 mmhg
Average Change [1, 6]: 27.5 mmhg
Inhibition [1, 6]: 41%
Change [1, 6]: 30 mmhg and 25 mmhg
Control Before AII [1, 6]: 180 mmhg and 175 mmhg
Response After AII [1, 6]: 210 mmhg and 200 mmhg
Average Change [1, 7]: 34 mmhg
Inhibition [1, 7]: 28%
Change [1, 7]: 38 mmhg and 30 mmhg
Control Before AII [1, 7]: 175 mmhg and 165 mmhg
Response After AII [1, 7]: 213 mmhg and 195 mmhg
Average Change [1, 8]: 31 mmhg
Inhibition [1, 8]: 34%
Change [1, 8]: 40 mmhg and 22 mmhg
Control Before AII [1, 8]: 175 mmhg and 163 mmhg
Response After AII [1, 8]: 215 mmhg and 185 mmhg
Average Change [1, 9]: 31.5 mmhg
Inhibition [1, 9]: 33%
Change [1, 9]: 40 mmhg and 23 mmhg
Control Before AII [1, 9]: 175 mmhg and 160 mmhg
Response After AII [1, 9]: 215 mmhg and 183 mmhg
Average Change [1, 10]: 40 mmhg
Inhibition [1, 10]: 15%
Change [1, 10]: 50 mmhg and 30 mmhg
Control Before AII [1, 10]: 175 mmhg and 160 mmhg
Response After AII [1, 10]: 225 mmhg and 190 mmhg
Average Change [1, 11]: 27.5 mmhg
Inhibition [1, 11]: 42%
Change [1, 11]: 35 mmhg and 20 mmhg
Control Before AII [1, 11]: 185 mmhg and 160 mmhg
Response After AII [1, 11]: 220 mmhg and 180 mmhg

IC50 (Angiotensin II Receptor): 70 nM
SMILES: CCCCc1nc2ccc(C3CC(c4ccc(C)cc4)=NO3)cc2c(=O)n1Cc1ccc(-c2ccccc2-c2nnn[nH]2)cc1 (stereo not shown) [Example 23, 2-Butyl-6-[4,5-dihydro-3-(4-methylphenyl)-5-isoxazolyl]-3-[[2'-(lH-tetrazol-5-yl)[1,1'-biphenyl]-4-yl]methyl]-4(3H)-quinazolinone]
